Values belong to the sequence of their own block, whether it stands above or below them.
How the values were obtained:
[1] = molecular target: T1, SN23-Syn4-Vp8 SNARE complex (Rattus norvegicus, UniProt O70377+Q08850+Q9WUF4); assay: SNARE-driven membrane fusion (total lipid mixing) assay with proteoliposomes; format: biochemical; conditions: peptide added after preincubation of T- and V-liposomes at 4°C overnight (partially zippered SNAREs) (Figure 4A)
T1 construct: Syn4 (amino acids 1–298); SNAP-23 (amino acids 1–210); VAMP8 (amino acids 1–100); GST (N, cleaved yes); made in house; host or cells: Escherichia coli Rosetta(DE3)pLysS
T1 sequence (Q08850 1-298): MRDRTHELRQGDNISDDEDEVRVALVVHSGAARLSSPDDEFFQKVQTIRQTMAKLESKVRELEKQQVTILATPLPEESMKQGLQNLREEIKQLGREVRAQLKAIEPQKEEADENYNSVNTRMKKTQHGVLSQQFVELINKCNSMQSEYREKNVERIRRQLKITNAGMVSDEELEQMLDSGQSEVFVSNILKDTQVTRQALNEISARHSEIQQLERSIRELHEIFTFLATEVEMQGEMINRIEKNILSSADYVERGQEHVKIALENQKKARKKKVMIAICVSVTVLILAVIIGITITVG
T1 sequence (O70377 1-210): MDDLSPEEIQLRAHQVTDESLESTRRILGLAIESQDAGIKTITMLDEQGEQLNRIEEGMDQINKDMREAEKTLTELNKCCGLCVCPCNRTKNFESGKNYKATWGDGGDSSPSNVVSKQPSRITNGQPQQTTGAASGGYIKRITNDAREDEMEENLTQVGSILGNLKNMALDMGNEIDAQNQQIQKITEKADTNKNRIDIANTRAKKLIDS
T1 sequence (Q9WUF4 1-100): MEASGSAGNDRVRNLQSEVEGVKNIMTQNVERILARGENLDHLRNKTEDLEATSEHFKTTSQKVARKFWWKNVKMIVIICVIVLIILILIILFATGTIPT

[2] = molecular target: T2, SN23-Syn4-Vp2 SNARE complex (Rattus norvegicus, UniProt O70377+P63045+Q08850); assay: as above; format: biochemical; conditions: for inhibition of membrane fusion, peptide added after preincubation: peptide added after preincubation of T- and V-liposomes at 4°C overnight (partially zippered SNAREs) (Figure 4A); for inhibition of membrane fusion, peptide added before preincubation: peptide added before preincubation of T- and V-liposomes at 4°C overnight (Figure 4A)
T2 construct: Syn4 (amino acids 1–298); SNAP-23 (amino acids 1–210); full-length VAMP2 (VpF, amino acids 1–116); GST (N, cleaved yes); made in house; host or cells: Escherichia coli Rosetta(DE3)pLysS
From the text: (§1) Total RNA was obtained from RBL-2H3 cells using TRIzol® Reagent (#15596026, Invitrogen, Carlsbad, CA, USA) and served as a template for cDNA synthesis with M-MLV reverse transcriptase (M1705, Promega, Madison, WI, USA) according to the manufacturer’s protocol. The cDNAs amplified for rat Syn4, SNAP-23, VAMP2, VAMP4, VAMP7, and VAMP8 using each primer pair ([4]), were cloned into the pGEX-4T 1 vector. The mast cell SNARE proteins [Syn4 (amino acids 1–298), SNAP-23 (amino acids 1–210), full-length VAMP2 (VpF, amino acids 1–116), VAMP4 (amino acids 1–141), and VAMP8 (amino acids 1–100)] were expressed in Escherichia coli Rosetta(DE3)pLysS (#70956, Novagen, Darmstadt, Germany) and purified as glutathione-S-transferase-tagged fusion proteins as reported previously ([8]).
(§2) To prepare the unilamellar liposomes, a 50-mM lipid mixture of palmitoyl-2-oleoylphosphatidylcholine (POPC) (#850457, Avanti Polar Lipids, Alabaster, AL, USA):1,2-dioleoyl-phosphatidylserine (DOPS) (#840035, Avanti Polar Lipids) at 65:35 mol% was dried in a glass tube under a gentle stream of nitrogen gas and then exposed to a vacuum overnight. The resultant lipid film was resuspended in dialysis buffer (25 mM HEPES and 100 mM KCl, pH 7.4) by vortexing, followed by an extrusion step with polycarbonate membrane filters having a pore size of 100 nm (#610005, Avanti Polar Lipids). To prepare proteoliposomes, binary T-SNAREs, which were pre-formed by mixing Syn4 and SNAP-23 at room temperature for 60 min, were incubated with 50 mM unilamellar liposomes for 15 min at the same temperature, resulting in a 50:1 lipid/protein molar ratio ([9]).
(§3) For the preparation of V-SNARE proteoliposomes, a 10-mM premixed lipid solution [POPC:DOPS:N-(7-nitro-2-1,3-benzoxadiazol-4-yl (NBD))-phosphatidylserine (#810198, Avanti Polar Lipids):[…] (#810150, Avanti Polar Lipids) = 62:35:1.5:1.5 (molar ratio)] was used for the preparation of fluorescent liposomes in the same manner as above. The prepared liposomes were then mixed with VAMP2 for 15 min at room temperature. The liposome/protein mixture was diluted twice to bring the concentration of n-octyl glucoside (O8001, Sigma-Aldrich) below the critical micelle concentration. After overnight dialysis against 1L dialysis buffer at 4°C to remove the detergent, SM-2 bio-beads (#1523920, Bio-Rad Laboratories, Hercules, CA, USA) were added to the sample to remove any remaining n-octyl glucoside. The solution was then centrifuged at 10,000 × g to remove the protein/lipid aggregates, and the final lipid concentrations of both the T- and V-liposomes were adjusted to 1 mM with a lipid-to-protein ratio of 50:1.
A total lipid mixing assay using the T- and V-liposomes was performed as described previously with minor modifications ([8]). […] The fusion was monitored using the dequenching of NBD fluorescence signal (excitation 465 nm/emission 530 nm). After at least 80 min of fusion, the maximum NBD signal was obtained by adding 0.1% Triton X-100™. All the lipid-mixing experiments were performed at 37°C.

[3] = system: RBL-2H3 mast cells; assay: Degranulation assay, β-hexosaminidase release; format: cell-based, rat; conditions: for inhibition of mast cell degranulation with versus without A23187 pretreatment: PTD-conjugated peptides, read-outs β-hexosaminidase and histamine (Figure 4B); for reduction of β-hexosaminidase release: 10 µM PTD-fused peptide without SLO (LY294002 as positive control), DNP-BSA stimulation, no A23187 pretreatment, three independent experiments (Figure 2A gray bars, 2C)
[4] = molecular target: T1, SN23-Syn4-Vp8 SNARE complex; assay: SNARE-driven membrane fusion (total lipid mixing) assay with proteoliposomes; format: biochemical; conditions: for inhibition of membrane fusion, peptide added before preincubation: peptide added before preincubation of T- and V-liposomes at 4°C overnight (Figure 4A)
From the text: as §1, §2, §3
A total lipid mixing assay using the T- and V-liposomes was performed as described previously with minor modifications ([8]). Briefly, peptide inhibitors were applied to the T-vesicles at the indicated concentrations and then the T-vesicles were mixed with the V-vesicles in a 384-well plate for the initiation of fusion, with a T- to V-vesicle volume ratio of 9:1. The fusion was monitored using the dequenching of NBD fluorescence signal (excitation 465 nm/emission 530 nm). After at least 80 min of fusion, the maximum NBD signal was obtained by adding 0.1% Triton X-100™. All the lipid-mixing experiments were performed at 37°C.

[5] = system: RBL-2H3 mast cells; assay: Degranulation assay, histamine release (enzyme immunoassay); format: cell-based, rat; conditions: for inhibition of histamine release: PTD-conjugated peptide without SLO (LY294002 as positive control), DNP-IgE sensitized, DNP-BSA stimulation, no A23187 pretreatment, three independent experiments (Figure 2C)
[6] = system: NC/Nga mice; assay: DNCB-induced atopic dermatitis-like skin lesions; format: in vivo, mouse
From the text: Seven-week-old NC/Nga mice were purchased from the Shizuoka Laboratory Animal Center (Shizuoka, Japan) and allowed to adapt to the environment for a week prior to use. The procedures for the induction of atopic dermatitis-like symptoms in mice using 1-chloro-2,4-dinitro-benzene (DNCB) have been well described previously ([27]). Briefly, the dorsal hair of the mice was shaved 2 days before DNCB administration. For the induction of atopic dermatitis, 1% DNCB was applied to the dorsal skin of the mice twice weekly for 7 days and then 0.2% DNCB was applied thrice weekly for 21 days. The mice were divided into the following […] treatment groups (n = 10 per group): 0.3 and 3% Vp2N/day, 0.3 and 3% Vp8N/day, 0.1% dexamethasone/day, and vehicle only, dorsally administered from 9 to 13 weeks of age. As a negative control for atopic dermatitis, NC/Nga mice that were not treated with DNCB were maintained under pathogen-free conditions. Laboratory animal breeding management was based on the “Guide for the Care and Use of Laboratory Animals,” and all experiments were approved by the Institutional Animal Care and Use Committees of Gyeonggi Institute of Science & Technology.

[7] = molecular target: T3, SN23-Syn4-Vp2 complex (Rattus norvegicus, UniProt O70377+P63045+Q08850); assay: Co-immunoprecipitation of SNARE complexes in activated RBL-2H3 cells, anti-SNAP-23 blot; format: cell-based; conditions: peptides added to the medium after A23187 pretreatment; IP of Vp2, blot anti-SNAP-23 (Figure 4C)
T3 construct: Lysates of RBL-2H3 cells; endogenous in cells; host or cells: RBL-2H3 (ATCC CRL-2256)
Description: Lysates of RBL-2H3 cells (0.5–1 × 10^6 cells), which were obtained by the addition of 1 mL lysis buffer (50 mM Tris–HCl, 150 mM NaCl, 1% Triton X-100™, 1 mM EDTA, pH 7.5) supplemented with a protease inhibitor cocktail (Calbiochem®, Merck Millipore, Billerica, MA, USA), were centrifuged at 13,000 g at 4°C to remove cell debris and precleared with 100 µL protein G Sepharose® (GE Healthcare) for 2 h at 4°C. The precleared lysates were incubated with antibodies against SNARE proteins (Syn4, SNAP-23, VAMP2, and VAMP8) for 2 h at 4°C for binding, and then the antibody–antigen complexes were precipitated by incubation with a protein G slurry overnight with constant shaking. After an extensive washing step with lysis buffer, an immunoblotting analysis was performed for the precipitates. The immunoprecipitated proteins and cell lysates were electrophoresed on 12% sodium dodecyl sulfate-polyacrylamide gel electrophoresis gels and then transferred to nitrocellulose blotting membranes (GE Healthcare). After blocking the membranes in TBST (10 mM Tris–HCl, 150 mM NaCl, and 0.05% Tween® 20, pH 8) containing 0.5% BSA and 5% skim milk for 1 h at room temperature, primary anti-SNAP-23 antibody (1:1,000 dilution) in TBST supplemented with 1% BSA and 0.01% sodium azide was added and incubated at 4°C overnight. The membranes were washed with TBST, treated with a horseradish peroxidase-conjugated secondary anti-mouse IgG antibody (A4416, Sigma-Aldrich), and visualized using enhanced chemiluminescence solution for the development of a luminescent signal.

[8] = inhibitor applied to T-vesicles, T:V 9:1, 37°C, NBD dequenching, Vp2S/Vp8S at 10 µM, three independent experiments (Figure 3B-D)
[9] = cells pretreated with A23187, sensitized with DNP-IgE, then PTD-conjugated peptide (Figure 4B)

T2 sequence (P63045 whole entry, one chain of several, the tested form may be a part): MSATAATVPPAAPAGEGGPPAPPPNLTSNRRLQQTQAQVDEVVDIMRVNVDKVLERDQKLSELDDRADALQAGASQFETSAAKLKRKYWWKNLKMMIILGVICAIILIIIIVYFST
T3 sequence (P63045 whole entry, one chain of several): as the sequence (P63045 whole entry, one chain of several, the tested form may be a part) above

Sequence: DQINKDMREAEKTLTEL [SN23C, 17-mer peptide, C-terminal region of SNAP-23 SNARE motif SN23]
inhibition of membrane fusion, peptide added after preincubation [1]: did not inhibit membrane fusion regardless of preincubation
inhibition of membrane fusion, peptide added after preincubation [2]: did not inhibit membrane fusion regardless of preincubation
inhibition of membrane fusion, peptide added before preincubation [2]: did not inhibit membrane fusion regardless of preincubation
inhibition of mast cell degranulation with versus without A23187 pretreatment [3]: did not inhibit degranulation regardless of whether the pretreatment with A23187 was performed
inhibition of membrane fusion, peptide added before preincubation [4]: did not inhibit membrane fusion regardless of preincubation

Sequence: EHFKTTSQKVARKFWWK [Vp8C, 17-mer peptide, C-terminal region of VAMP8 SNARE motif]
inhibition of membrane fusion, peptide added after preincubation [1]: did not inhibit membrane fusion regardless of preincubation
inhibition of membrane fusion, peptide added after preincubation [2]: did not inhibit membrane fusion regardless of preincubation
inhibition of membrane fusion, peptide added before preincubation [2]: did not inhibit membrane fusion regardless of preincubation
inhibition of mast cell degranulation with versus without A23187 pretreatment [3]: did not inhibit degranulation regardless of whether the pretreatment with A23187 was performed
inhibition of membrane fusion, peptide added before preincubation [4]: did not inhibit membrane fusion regardless of preincubation

Sequence: KIKHVQNQVDEVIDVMQ [Vp4N, 17-mer peptide, N-terminal region of VAMP4 SNARE motif]
inhibition of histamine release [5]: 0–20%
reduction of β-hexosaminidase release [3]: 0–20%

Sequence: QSLDRVTETQAQVDELK [Vp7N, 17-mer peptide, N-terminal region of VAMP7 SNARE motif]
inhibition of histamine release [5]: 0–20%
reduction of β-hexosaminidase release [3]: 0–20%

inhibition of membrane fusion (lipid mixing) [4, 8]: specific to the SN23-Syn4-Vp8 complex
Sequence: RGENLDHLRNKTEDLEA [Vp8M, 17-mer peptide, middle region of VAMP8 SNARE motif]

inhibition of membrane fusion (lipid mixing) [2, 8]: efficiently inhibited
SNARE complex formation in cells (amount of SN23-Syn4-Vp2 complex) [7]: reduced
Sequence: RRLQQTQAQVDEVVDIM [Vp2N, 17-mer peptide, N-terminal region of VAMP2 SNARE motif]
inhibition of membrane fusion, peptide added after preincubation [2]: inhibitory activities significantly diminished
inhibition of membrane fusion, peptide added before preincubation [2]: inhibited the membrane fusion driven only by their cognate SNARE complexes
epidermal thickness ([6]; 0.3 and 3% peptide/day dorsally for 4 weeks, n = 10 per group, versus DNCB/vehicle-treated group (Figure 5C)): significantly reduced
atopic dermatitis features (acanthosis, hypergranulosis, hyperkeratosis) in hematoxylin and eosin-stained sections ([6]; 0.3 and 3% peptide/day dorsally, 9 to 13 weeks of age, n = 10 per group, compared with 0.1% dexamethasone/day group (Figure 5B)): clearly alleviated to a similar extent
ear thickness ([6]; 0.3 and 3% peptide/day or 0.1% dexamethasone/day for 4 weeks, n = 10 per group (Figure 5D)): reduced
inhibition of histamine release [5]: 43%
inhibition of histamine release after A23187 pretreatment [5, 9]: dramatically reduced
reduction of β-hexosaminidase release [3]: did not inhibit
inhibition of mast cell degranulation with versus without A23187 pretreatment [3]: inhibited mast cell degranulation more efficiently than without pretreatment
inhibition of β-hexosaminidase release after A23187 pretreatment [3, 9]: did not inhibit

Reference: article PMC5904360, “Soluble N-Ethylmaleimide-Sensitive Factor Attachment Protein Receptor-Derived Peptides for Regulation of Mast Cell Degranulation” (Frontiers in Immunology, 2018)
